Laboratory results published in patent publication US20200297867A1, “SURFACE FUNCTIONALIZATION OF LIPOSOMES AND LIPOSOMAL SPHERICAL NUCLEIC ACIDS (SNAS)” (EXICURE,INC., priority 2016, published 2020).
“Also recorded” adds a separate entry of the source.

Key:
[1] = Sterile filtration through 0.22 μm PES syringe filter; format: physicochemical; conditions: 0.22 μm sterile filter; inferred from HEK hTLR4 activity after filtration
Protocol: (§1) GLA (Avanti Polar Lipids) was resuspended in dimethylsulfoxide (DMSO) at 1 mg/mL. GLA in DMSO was mixed with an aqueous solution of liposomes (L-GLA) or PBS (GLA alone) such that the final DMSO concentration was 2%. DMSO is miscible in aqueous solutions, and allows GLA to condense on the surface of SNAs as the organic solution is diluted. Modulation of GLA functionalized to the surface of liposomes can be achieved by adjusting the ratio of GLA to liposome. The DMSO was removed from the liposomal solution by diafiltration using tangential-flow filtration (TFF) with a hollow fiber filter (750 kDa cut-off). These liposomes which have been surface functionalized with GLA (with a loading of 50 molecules/liposome) may then be further surface modified with other molecules. L-GLA or GLA alone was then sterile filtered through a 0.22 μm PES sterile syringe filter (VWR) to remove any non-functionalized GLA or GLA aggregates.
GLA alone was prepared using the same method used to prepare L-GLA but without the presence of liposomes. Free or unbound GLA will aggregate and cannot pass through a sterile filter.

hTLR4 = molecular target: T1, hTLR4 (Homo sapiens, UniProt O00206+Q9Y6Y9); experiment: Experiment 4: activation of HEK hTLR4 cells pre- and post-sterile filtration, QuantiBlue; format: cell-based; conditions: post-sterile filtration through 0.22 μm PES filter; max 15 μM GLA, 1:3 serial dilution, 7 dilutions; 24 hours
T1 construct: expressed in transfected cells; host or cells: HEK huTLR4 (HEK hTLR4) cells
Protocol: FIG. 4. […] HEK hTLR4 cells were treated with 15 μM of GLA (for each compound tested) with a 1:3 serial dilution for 7 dilutions.
as §1, with “aggregates. […]” for “aggregates.”
QuantiBlue detection media was purchased from Invivogen. […] After development of color using the standard curve as a reference, the plate was read using a fluorescence plate reader (Synergy 4) at an absorbance of 650 nm.

T1 sequence (O00206 24-839): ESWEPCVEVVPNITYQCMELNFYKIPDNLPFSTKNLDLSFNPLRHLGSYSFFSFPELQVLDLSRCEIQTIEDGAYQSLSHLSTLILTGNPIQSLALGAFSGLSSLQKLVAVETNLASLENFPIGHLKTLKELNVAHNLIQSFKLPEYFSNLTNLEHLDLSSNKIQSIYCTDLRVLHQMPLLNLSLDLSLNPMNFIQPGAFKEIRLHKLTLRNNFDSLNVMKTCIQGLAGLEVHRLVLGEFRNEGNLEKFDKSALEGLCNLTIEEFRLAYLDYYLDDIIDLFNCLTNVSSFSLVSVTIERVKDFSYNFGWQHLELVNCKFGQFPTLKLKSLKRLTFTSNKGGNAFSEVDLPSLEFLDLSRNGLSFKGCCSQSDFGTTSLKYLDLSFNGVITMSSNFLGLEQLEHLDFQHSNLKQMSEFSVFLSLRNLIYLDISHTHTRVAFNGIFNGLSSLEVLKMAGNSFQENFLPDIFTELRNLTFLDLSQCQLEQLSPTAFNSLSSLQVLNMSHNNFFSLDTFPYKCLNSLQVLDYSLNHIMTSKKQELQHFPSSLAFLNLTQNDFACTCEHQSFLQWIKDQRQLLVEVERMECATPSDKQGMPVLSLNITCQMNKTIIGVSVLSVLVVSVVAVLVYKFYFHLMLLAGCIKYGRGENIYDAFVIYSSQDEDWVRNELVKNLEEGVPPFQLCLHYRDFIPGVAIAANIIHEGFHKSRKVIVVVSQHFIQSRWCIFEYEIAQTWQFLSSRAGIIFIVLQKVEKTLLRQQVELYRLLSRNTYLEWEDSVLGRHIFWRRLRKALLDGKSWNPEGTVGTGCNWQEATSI
T1 sequence (Q9Y6Y9 17-160 limits assumed): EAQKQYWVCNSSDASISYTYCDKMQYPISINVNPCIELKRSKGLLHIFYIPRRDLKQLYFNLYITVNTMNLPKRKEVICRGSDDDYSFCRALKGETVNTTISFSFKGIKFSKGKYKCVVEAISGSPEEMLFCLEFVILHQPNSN

SMILES: CCCCCCCCCCCCCC(=O)O[C@H](CCCCCCCCCCC)CC(=O)N[C@H]1[C@H](OC[C@H]2O[C@H](O)[C@H](NC(=O)C[C@H](O)CCCCCCCCCCC)[C@@H](OC(=O)C[C@H](O)CCCCCCCCCCC)[C@@H]2O)O[C@H](CO)[C@@H](OP(=O)(O)O)[C@@H]1OC(=O)C[C@@H](CCCCCCCCCCC)OC(=O)CCCCCCCCCCCCC.N [GLA alone, glycopyranoside lipid A]
- passage through sterile filter [1]: removed by sterile filtration
- activation of HEK hTLR4 cells (hTLR4): failed to activate; also recorded: does not
